Holding throughout (assay): relative viability (nuclei count vs DMSO), 5 days (fraction); higher = more cells survive
Compound in assay [1]: C1/C(=C\C2=CC=CS2)/C(=O)/C(=C/C3=CC=CS3)/C1 + CC(=O)c1c(C)c2cnc(Nc3ccc(N4CCNCC4)cn3)nc2n(C2CCCC2)c1=O [Palbociclib] (partner 0.5 µM)
In a few lines:
(§1)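 For relative viability, nuclei counts in treated wells were divided by those in vehicle wells. Lung cancer cell lines had been pin-tool dosed in 1536-well plates the day after seeding and cultured for 5 days, then fixed and stained in one step (final 0.05% Triton X-100, 1% formaldehyde, 1 ug/ml Hoechst) and imaged at 4×. Doses were one drug alone or a fixed anchor-drug dose plus five library-drug doses (not always all listed) in √10 steps, and values are duplicate-plate medians.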

Compound in assay [2]: C1/C(=C\C2=CC=CS2)/C(=O)/C(=C/C3=CC=CS3)/C1 + CC(C)C[C@H](NC(=O)[C@H](Cc1ccccc1)NC(=O)c1cnccn1)B(O)O [Bortezomib] (partner 0.002 µM)
In a few lines:
as §1

Compound in assay [3]: C1/C(=C\C2=CC=CS2)/C(=O)/C(=C/C3=CC=CS3)/C1 + Nc1ncn([C@H]2C[C@H](O)[C@@H](CO)O2)c(=O)n1 [Decitabine] (partner 2 µM)
In a few lines:
as §1

Compound in the assay “TPCA-1 + OSI-027”: C1=CC(=CC=C1C2=CC(=C(S2)NC(=O)N)C(=O)N)F [TPCA-1] + COc1cccc2cc(-c3nc([C@H]4CC[C@H](C(=O)O)CC4)n4ncnc(N)c34)[nH]c12 [OSI-027] (partner 0.5 µM)
Put shortly:
as §1

Consider UMC-11, for which the relative viability stood at 0.308 in assay [1] (first compound 0.2 µM); 0.367 in assay [1] (first compound 0.6325 µM); 0.322 in assay [1] (first compound 2 µM); 0.334 in assay [1] (first compound 6.325 µM); 0.338 in assay [1] (first compound 20 µM); 0.717 in assay [2] (first compound 0.2 µM). Moreover, the relative viability came out at 0.579 in assay [2] (first compound 0.6325 µM); 0.639 in assay [2] (first compound 2 µM); 0.597 in assay [2] (first compound 20 µM); 0.752 in assay [3] (first compound 0.2 µM); 0.653 in assay [3] (first compound 0.6325 µM); 0.637 in assay [3] (first compound 2 µM). Also, the relative viability in assay [3] (first compound 6.325 µM) was 0.513; in assay [3] (first compound 20 µM), 0.515; in the assay with TPCA-1 + OSI-027 (first compound 0.04 µM), 0.536; with TPCA-1 + OSI-027 (first compound 0.1265 µM), 0.337; in the assay with TPCA-1 + OSI-027 (first compound 0.4 µM), 0.466; in the assay with TPCA-1 + OSI-027 (first compound 1.265 µM) it was 0.4. Also, the relative viability with TPCA-1 + OSI-027 (first compound 4 µM) turned out to be 0.234.
